Experimental data reported in ChEMBL document CHEMBL1129473, “Slow-binding inhibition of gamma-aminobutyric acid aminotransferase by hydrazine analogues” (J Med Chem, 1996).
pKd, pKi: −log10 of the molar value. Where a name gives a salt, the structure may show the parent alone.

Columns and labels:
[1] = target: T1, 4-aminobutyrate aminotransferase, mitochondrial (Sus scrofa, UniProt P80147); assay: The Dissociation Constant for Gamma-amino-N-butyrate transaminase
[2] = target: 4-aminobutyrate aminotransferase, mitochondrial (Sus scrofa) (UniProt P80147); assay: Dissociation constant of the Gamma-amino-N-butyrate transaminase
[3] = target: 4-aminobutyrate aminotransferase, mitochondrial (Sus scrofa) (UniProt P80147); assay: Inhibitory rate constant against Gamma-amino-N-butyrate transaminase
[4] = target: T1, 4-aminobutyrate aminotransferase, mitochondrial; assay: Inhibitory activity against Gamma-amino-N-butyrate transaminase
[5] = target: 4-aminobutyrate aminotransferase, mitochondrial (Sus scrofa) (UniProt P80147); assay: The Reactivation Kinetic Constant for Gamma-amino-N-butyrate transaminase

Sequence of 4-aminobutyrate aminotransferase, mitochondrial (Sus scrofa) (P80147 whole entry): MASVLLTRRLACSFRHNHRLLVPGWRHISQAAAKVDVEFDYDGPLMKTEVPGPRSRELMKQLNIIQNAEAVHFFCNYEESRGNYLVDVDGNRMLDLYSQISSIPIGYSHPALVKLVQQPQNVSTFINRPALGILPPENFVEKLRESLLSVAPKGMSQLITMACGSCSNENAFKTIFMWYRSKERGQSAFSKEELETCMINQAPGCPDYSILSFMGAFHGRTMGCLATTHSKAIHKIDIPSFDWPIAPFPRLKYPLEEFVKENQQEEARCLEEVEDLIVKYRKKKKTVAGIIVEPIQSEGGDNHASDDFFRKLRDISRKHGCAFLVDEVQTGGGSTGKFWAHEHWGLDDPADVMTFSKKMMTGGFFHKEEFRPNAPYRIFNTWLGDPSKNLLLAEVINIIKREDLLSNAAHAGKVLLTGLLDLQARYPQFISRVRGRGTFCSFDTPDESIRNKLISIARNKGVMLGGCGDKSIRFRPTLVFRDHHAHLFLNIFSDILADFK
T1 sequence (P80147 whole entry): as above

Row | Compound | pKd [1] | K4 [2] [min⁻¹] | K3 [3] [M⁻¹ s⁻¹] | pKi [4] | Kreact [5] [min⁻¹]
1 | NNCc1cccc(O)c1 [3-HYDROXYBENZYLHYDRAZINE DIHYDROCHLORIDE] | 6.34 | 0.005 | 330 | 6.52 | 0.02
2 | NNCCC(=O)O | > 7.70 |  |  |  | 0.0069
3 | CNN [METHYLHYDRAZINE] | 5.55 | 0.0046 | 34.7 | 5.66 | 4
